Assay [1] deals with Recombinant human Cbl-b (aa 36-427) (Homo sapiens, UniProt Q13191). Description: Cbl-b Biochemical Assay (TR-FRET). Conditions: read-out: TR-FRET hCbl-b IC50. (In TR-FRET formats the signal depends on donor and acceptor labels being close together.)
In assay [2] the target is T1, Recombinant human c-Cbl (aa 47-435) (Homo sapiens, UniProt P22681).
T1 sequence (P22681 47-435): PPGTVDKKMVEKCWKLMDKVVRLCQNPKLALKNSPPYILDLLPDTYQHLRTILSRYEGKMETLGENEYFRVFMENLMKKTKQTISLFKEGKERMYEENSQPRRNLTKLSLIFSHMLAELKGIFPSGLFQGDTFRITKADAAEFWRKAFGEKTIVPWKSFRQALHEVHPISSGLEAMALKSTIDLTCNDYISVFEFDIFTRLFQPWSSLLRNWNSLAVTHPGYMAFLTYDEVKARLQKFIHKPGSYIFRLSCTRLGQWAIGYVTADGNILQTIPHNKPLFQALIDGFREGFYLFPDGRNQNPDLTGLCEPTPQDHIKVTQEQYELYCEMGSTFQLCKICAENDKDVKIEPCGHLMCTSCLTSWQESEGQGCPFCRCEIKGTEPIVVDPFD
Description: c-Cbl Biochemical Assay (TR-FRET). Conditions: hc-Cbl Biochemical Assay (TR-FRET); read-out: TR-FRET hcCbl IC50.

Assay [3] concerns Jurkat (clone E6-1) cells with NFAT luciferase reporter. Description: Jurkat reporter assay (NFAT Luciferase). Conditions: Homo sapiens; Jurkat NFAT luciferase reporter cells, anti-CD3 stimulation, 6 hr; read-out: Jurkat NFAT EC50. It is filed as cell-based. (A reporter such as luciferase makes a cellular process visible.)

Recombinant human Cbl-b (aa 36-427), sequence (Q13191 36-427): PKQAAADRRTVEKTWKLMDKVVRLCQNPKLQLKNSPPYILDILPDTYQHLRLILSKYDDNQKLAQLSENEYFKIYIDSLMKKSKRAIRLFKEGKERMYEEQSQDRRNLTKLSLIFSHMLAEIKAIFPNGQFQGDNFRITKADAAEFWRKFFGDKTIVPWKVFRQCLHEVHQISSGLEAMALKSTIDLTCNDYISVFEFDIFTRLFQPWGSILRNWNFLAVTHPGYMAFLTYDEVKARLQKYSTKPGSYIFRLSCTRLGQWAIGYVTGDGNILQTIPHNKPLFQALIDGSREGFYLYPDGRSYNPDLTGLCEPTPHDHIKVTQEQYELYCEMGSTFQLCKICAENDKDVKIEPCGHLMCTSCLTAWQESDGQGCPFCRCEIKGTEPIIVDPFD

With `Cc1cc(CN(C)[C@@H]2CCC[C@@H]2O)cc2nc(-c3cccc(-c4ccc(F)cc4-c4nncn4C)c3)oc12` [HY-3, (1S,2R)-2-(((2-(4′-Fluoro-2′-(4-methyl-4H-1,2,4-triazol-3-yl)-[1,1′-biphenyl]-3-yl)-7-methylbenzo[d]oxazol-5-yl)methyl)(methyl)amino)cyclopentan-1-ol], the IC50 in assay [1] and in assay [2] was less than 200 nM each time. The EC50 in assay [3] was 200 to 1000 nM.
With `Cn1cnnc1-c1cc(F)ccc1-c1cccc(-c2nc3cc(NCCN4CCC4)cc(C(F)(F)F)c3o2)c1` [HZ-2, N-(2-(Azetidin-1-yl)ethyl)-2-(4′-fluoro-2′-(4-methyl-4H-1,2,4-triazol-3-yl)-[1,1′-biphenyl]-3-yl)-7-(trifluoromethyl)benzo[d]oxazol-5-amine], the values for the half-maximal inhibitory concentration (IC50) in assay [1] and in assay [2] were less than 200 nM and 200 to 1000 nM, respectively. Further, the EC50 in assay [3] lay in the range of 1000 to 10000 nM.
For `CN(Cc1cc(C(F)(F)F)c2oc(-c3cccc(-c4ccc(F)cc4-c4nncn4C)c3)nc2c1)CC1(O)CCC1` [IA-1, 1-((((2-(4′-Fluoro-2′-(4-methyl-4H-1,2,4-triazol-3-yl)-[1,1′-biphenyl]-3-yl)-7-(trifluoromethyl)benzo[d]oxazol-5-yl)methyl)(methyl)amino)methyl)cyclobutan-1-ol], in that order: less than 200 nM, less than 200 nM and less than 200 nM.
Consider `Cn1cnnc1-c1cc(F)ccc1-c1cccc(-c2nc3nc(CN[C@@H]4CCC[C@@H]4O)ccc3o2)c1` [IB-7, (1S,2R)-2-(((2-(4′-Fluoro-2′-(4-methyl-4H-1,2,4-triazol-3-yl)-[1,1′-biphenyl]-3-yl)oxazolo[4,5-b]pyridin-5-yl)methyl)amino)cyclopentan-1-ol], for which the concentration for half-maximal inhibition (IC50) in assay [1] was less than 200 nM; in assay [2] it was 200 to 1000 nM. Moreover, the EC50 in assay [3] lay within 1000 to 10000 nM.
Regarding `Cc1cc(CNCC2(F)CCC2)cc2nc(-c3cccc(-c4ccc(F)cc4-c4nncn4C)c3)oc12` [IC-1, 1-(2-(4′-Fluoro-2′-(4-methyl-4H-1,2,4-triazol-3-yl)-[1,1′-biphenyl]-3-yl)-7-methylbenzo[d]oxazol-5-yl)-N-((1-fluorocyclobutyl)methyl)methanamine], the half-maximal inhibitory concentration (IC50) in assay [1] and in assay [2] was less than 200 nM in each case. Moreover, in assay [3], the EC50 is 200 to 1000 nM.
Take `CN(Cc1cc(C(F)(F)F)c2[nH]c(-c3cccc(-c4ccc(F)cc4-c4nncn4C)c3)nc2c1)[C@@H]1CCC[C@@H]1O` [ID-3, (1S,2R)-2-(((2-(4′-Fluoro-2′-(4-methyl-4H-1,2,4-triazol-3-yl)-[1,1′-biphenyl]-3-yl)-7-(trifluoromethyl)-1H-benzo[d]imidazol-5-yl)methyl)(methyl)amino)cyclopentan-1-ol]: the half-inhibitory concentration (IC50) in assay [1] and in assay [2] was less than 200 nM throughout. The concentration for a half-maximal effect (EC50) in assay [3] was less than 200 nM.
For the molecule `CN(Cc1cc(C(F)(F)F)c2oc(-c3cccc(-c4ccc(F)cc4-c4nncn4C)c3)nc2c1)CC1CCC1` [IE-1, 1-Cyclobutyl-N-((2-(4′-fluoro-2′-(4-methyl-4H-1,2,4-triazol-3-yl)-[1,1′-biphenyl]-3-yl)-7-(trifluoromethyl)benzo[d]oxazol-5-yl)methyl)-N-methylmethanamine], the half-inhibitory concentration (IC50) is less than 200 nM in assay [1] and 200 to 1000 nM in assay [2]. Besides, the EC50 in assay [3] was 200 to 1000 nM.
`Cn1cnnc1-c1cc(F)ccc1-c1cccc(-c2nc3cc(NCCN4CC(F)(F)C4)cc(C(F)(F)F)c3o2)c1` [IF-2, N-(2-(3,3-Difluoroazetidin-1-yl)ethyl)-2-(4′-fluoro-2′-(4-methyl-4H-1,2,4-triazol-3-yl)-[1,1′-biphenyl]-3-yl)-7-(trifluoromethyl)benzo[d]oxazol-5-amine]: the values for the IC50 in assay [1] and in assay [2] were less than 200 nM and 200 to 1000 nM, respectively. The concentration for a half-maximal effect (EC50) in assay [3] lay in the range of 1000 to 10000 nM.
In the case of `O[C@H]1CCC[C@H]1NCc1cc(C(F)(F)F)c2oc(-c3cccc(-c4ccc(F)cc4-c4nnco4)c3)nc2c1` [IG-6, (1S,2R)-2-(((2-(4′-Fluoro-2′-(1,3,4-oxadiazol-2-yl)-[1,1′-biphenyl]-3-yl)-7-(trifluoromethyl)benzo[d]oxazol-5-yl)methyl)amino)cyclopentan-1-ol], the half-maximal inhibitory concentration (IC50) in assay [1] and in assay [2] was less than 200 nM each time. In addition, in assay [3], the EC50 was 200 to 1000 nM.
For `COc1cc(CN[C@@H]2CCC[C@@H]2O)cn2nc(-c3cccc(-c4ccc(F)cc4-c4nncn4C)c3)nc12` [IH-9, (1S,2R)-2-(((2-(4′-Fluoro-2′-(4-methyl-4H-1,2,4-triazol-3-yl)-[1,1′-biphenyl]-3-yl)-8-methoxy-[1,2,4]triazolo[1,5-a]pyridin-6-yl)methyl)amino)cyclopentan-1-ol], the IC50 in assay [1] and in assay [2] was less than 200 nM throughout. The concentration giving a half-maximal response (EC50) in assay [3] fell in the range of 200 to 1000 nM.
On to `CC(=O)NCc1cc(C(F)(F)F)c2oc(-c3cccc(-c4ccc(F)cc4-c4nncn4C)c3)nc2c1` [II-1, N-((2-(4′-Fluoro-2′-(4-methyl-4H-1,2,4-triazol-3-yl)-[1,1′-biphenyl]-3-yl)-7-(trifluoromethyl)benzo[d]oxazol-5-yl)methyl)acetamide], for which the IC50 fell in the range of 1000 to 10000 nM in assay [1] and 200 to 1000 nM in assay [2]. The EC50 in assay [3] was in the range of 1000 to 10000 nM.
In the case of `Cc1cc(CNCC2(O)CCC2)cc2nc(-c3cccc(-c4ccc(F)cc4-c4nncn4C)c3)oc12` [IJ-1, 1-((((2-(4′-Fluoro-2′-(4-methyl-4H-1,2,4-triazol-3-yl)-[1,1′-biphenyl]-3-yl)-7-methylbenzo[d]oxazol-5-yl)methyl)amino)methyl)cyclobutan-1-ol], the 50% inhibitory concentration (IC50) in assay [1] and in assay [2] was less than 200 nM throughout. The 50% effective concentration (EC50) in assay [3] is less than 200 nM.
As to `Cc1cc(CNCC(C)(C)O)cc2nc(-c3cccc(-c4ccc(F)cc4-c4nncn4C)c3)oc12` [IK-1, 1-(((2-(4′-Fluoro-2′-(4-methyl-4H-1,2,4-triazol-3-yl)-[1,1′-biphenyl]-3-yl)-7-methylbenzo[d]oxazol-5-yl)methyl)amino)-2-methylpropan-2-ol], the IC50 in assay [1] and in assay [2] was less than 200 nM in each case. The EC50 in assay [3] was less than 200 nM.
As for `Cn1cnnc1-c1cc(F)ccc1-c1cccc(-c2nc3cc(CN4C[C@@H]5C[C@H]4CO5)cc(C(F)(F)F)c3o2)c1` [IN-2, 5-(((1S,4S)-2-Oxa-5-azabicyclo[2.2.1]heptan-5-yl)methyl)-2-(4′-fluoro-2′-(4-methyl-4H-1,2,4-triazol-3-yl)-[1,1′-biphenyl]-3-yl)-7-(trifluoromethyl)benzo[d]oxazole], the concentration for half-maximal inhibition (IC50) in assay [1] and in assay [2] was 1000 to 10000 nM throughout. Moreover, the concentration giving a half-maximal response (EC50) in assay [3] is 1000 to 10000 nM.
On to `Cn1cnnc1-c1cc(F)ccc1-c1cccc(-c2nc3cc(CN[C@@H]4CCC[C@@H]4O)c(F)cc3o2)c1` [IP-7, (1S,2R)-2-(((6-Fluoro-2-(4′-fluoro-2′-(4-methyl-4H-1,2,4-triazol-3-yl)-[1,1′-biphenyl]-3-yl)benzo[d]oxazol-5-yl)methyl)amino)cyclopentan-1-ol], for which the IC50 in assay [1] and in assay [2] was less than 200 nM in each case. The concentration for a half-maximal effect (EC50) in assay [3] was less than 200 nM.
For `Cc1cc(CN[C@@H]2CCC[C@@H]2O)c(F)c2nc(-c3cccc(-c4ccc(F)cc4-c4nncn4C)c3)oc12` [IQ-8, (1S,2R)-2-(((4-Fluoro-2-(4′-fluoro-2′-(4-methyl-4H-1,2,4-triazol-3-yl)-[1,1′-biphenyl]-3-yl)-7-methylbenzo[d]oxazol-5-yl)methyl)amino)cyclopentan-1-ol], the IC50 in assay [1] and in assay [2] was less than 200 nM in each case. Further, the EC50 in assay [3] was less than 200 nM.
`COCCNCc1cc2nc(-c3cccc(-c4ccc(F)cc4-c4nncn4C)c3)oc2cc1F` [IR-1, N-((6-Fluoro-2-(4′-fluoro-2′-(4-methyl-4H-1,2,4-triazol-3-yl)-[1,1′-biphenyl]-3-yl)benzo[d]oxazol-5-yl)methyl)-2-methoxyethan-1-amine]: the figures for the IC50 in assay [1] and in assay [2] were less than 200 nM and 200 to 1000 nM, respectively. Further, the EC50 in assay [3] was in the range of 200 to 1000 nM.
With `COCCNCc1cc(F)c2oc(-c3cccc(-c4ccc(F)cc4-c4nncn4C)c3)nc2c1` [IS-1, N-((7-Fluoro-2-(4′-fluoro-2′-(4-methyl-4H-1,2,4-triazol-3-yl)-[1,1′-biphenyl]-3-yl)benzo[d]oxazol-5-yl)methyl)-2-methoxyethan-1-amine], the 50% inhibitory concentration (IC50) in assay [1] and in assay [2] was less than 200 nM throughout. For the same molecule, in assay [3], the EC50 was less than 200 nM.
On to `[2H]C([2H])([2H])N(Cc1cc(C(F)(F)F)c2oc(-c3cccc(-c4ccc(F)cc4-c4nncn4C)c3)nc2c1)[C@@H]1CCC[C@@H]1O` [IT-1, (1S,2R)-2-(((2-(4′-Fluoro-2′-(4-methyl-4H-1,2,4-triazol-3-yl)-[1,1′-biphenyl]-3-yl)-7-(trifluoromethyl)benzo[d]oxazol-5-yl)methyl)(methyl-d3)amino)cyclopentan-1-ol], for which the IC50 in assay [1] and in assay [2] was less than 200 nM throughout. Further, the EC50 in assay [3] was less than 200 nM.
Take `CO[C@H]1CCCN(Cc2cc(C(F)(F)F)c3oc(-c4cccc(-c5ccc(F)cc5-c5nncn5C)c4)nc3c2)C1` [IU-2, (S)-2-(4′-Fluoro-2′-(4-methyl-4H-1,2,4-triazol-3-yl)-[1,1′-biphenyl]-3-yl)-5-((3-methoxypiperidin-1-yl)methyl)-7-(trifluoromethyl)benzo[d]oxazole]: the IC50 in assay [1] and in assay [2] was less than 200 nM throughout. The concentration giving a half-maximal response (EC50) in assay [3] is 200 to 1000 nM.

Broadly, the IC50 is the concentration needed to halve the response being measured. What is called EC50 is the midpoint of the concentration-response curve.

Values taken from US20250163038A1, “CBL-B MODULATORS AND USES THEREOF” (Nimbus Clio, Inc., priority 2021, published 2025).
